# Measured values from patent publication US6156700A, “3-(1,2-Benzisothiazol- and isoxazol-5-yl)-2,4(1H,3H)-pyrimidinedione or thione and 3-(1,2-benzisothiazol- and isoxazol-5-yl)-4(3H)-pyrimidinone or thione herbicidal agents” (American Cyanmid Company, priority 1998, dated 2000).
# What was measured:
# [1] = test system: Velvetleaf, Abutilon theophrasti; test: Postemergence herbicidal evaluation, ABUTH; type: in vivo, Medic.; details: 0.2500 kg/ha
# Method in brief: (§1)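 Each compound, dispersed in a 1:1 acetone–water mixture bearing 0.5% TWEEN 20, was sprayed onto roughly two-week-old seedlings at about 0.0157–0.500 kg/ha. Visual 0–9 ratings against control were made 4–5 weeks post-treatment and averaged over repeat tests.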
# [2] = test system: Sicklepod, Cassia obtusifolia; test: Postemergence herbicidal evaluation, CASOB; type: in vivo, L.; details: 0.2500 kg/ha
# Method in brief: as §1
# [3] = test system: Galium, Galium aparine; test: Postemergence herbicidal evaluation, GALAP; type: in vivo; details: 0.2500 kg/ha
# Method in brief: as §1
# [4] = test system: Morningglory Spp., Ipomoea Spp.; test: Postemergence herbicidal evaluation, IPOSS; type: in vivo; details: 0.2500 kg/ha
# Method in brief: as §1
# [5] = test system: Foxtail, Green, Setaria viridis; test: Postemergence herbicidal evaluation, SETVI; type: in vivo, (L.) Beau; details: 0.2500 kg/ha
# Method in brief: as §1
# [6] = test system: Ragweed, Common, Ambrosia artemisifolia; test: Preemergence herbicidal evaluation, AMBEL; type: in vivo, L.; details: 0.2500 kg/ha
# Method in brief: (§2)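 Values are 0–9 visual ratings of stand, vigor, malformation, size, chlorosis and overall appearance relative to a control, scored 4 to 5 weeks after treatment. Test compound in aqueous acetone was sprayed onto soil right after seeding, at rates equivalent to about 0.0156–0.500 kg per hectare.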
# [7] = test system: Rice, Tebonnet, Oryza sativa; test: Preemergence herbicidal evaluation, ORYSAT; type: in vivo, (L.) Tebonnet; details: 0.2500 kg/ha
# Method in brief: as §2
# [8] = test system: Wheat, Winter, cv Riband, Triticum aestivum; test: Preemergence herbicidal evaluation, TRZAWR; type: in vivo; details: 0.2500 kg/ha
# Method in brief: as §2
# [9] = test system: CYPSE Flatsedge; test: Preemergence weed control, flooded paddy (Table III); type: in vivo, Cyperus serotinus; set-up: scale not given here
# Method in brief: (§3)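 Seeds or propagules sown in silt loam under 1.5 to 3 cm standing flood water; compound in 50/50 aqueous/acetone pipetted into the water at about 0.0313 to 0.500 kg/ha active ingredient. Greenhouse-held; herbicidal effect rated on a scale 3-4 weeks after treatment.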
# [10] = test system: MOOVA Monochoria; test: as above; type: in vivo, Monochoria vaginalis; set-up: scale not given here
# Method in brief: as §3
# [11] = test system: ORYSAT Rice, Tebonnet; test: Tolerance of transplanted rice to post-transplant application (Table III); type: in vivo, Oryza sativa; set-up: scale not given here; details: crop tolerance
# Method in brief: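 Two ten-day-old Tebonnet seedlings were transplanted into flooded silt loam, with water kept 1.5–3 cm above the soil. Three days after transplanting, the flooded surface was treated with compound in 50/50 aqueous/acetone at about 0.0313–0.500 kg/ha. Injury was rated in the greenhouse 3–4 weeks after treatment.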
# [12] = test system: CYPIR Rice Flatsedge; test: Postemergence weed control, flooded paddy (Table IV); type: in vivo, Cyperus iria; set-up: scale not given here
# Method in brief: (§4)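 Weeds 3–5 cm tall and rice at 1.5–2.5 leaf stage in flooded containers, water held 1.5–3 cm above soil. Compounds in 50/50 aqueous/acetone applied into flood water at about 0.0313–0.500 kg/ha. Herbicidal effect rated visually three to four weeks after treatment.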
# [13] = test system: CYPSE Flatsedge; test: as above; type: in vivo, Cyperus serotinus; set-up: scale not given here
# Method in brief: as §4
# [14] = test system: MOOVA Monochoria; test: as above; type: in vivo, Monochoria vaginalis; set-up: scale not given here
# Method in brief: as §4
# [15] = test system: SAGPY Arrowhead (Pygmaea); test: as above; type: in vivo, Sagittaria pygmaea; set-up: scale not given here
# Method in brief: as §4
# [16] = test system: ORYSAT Rice, Tebonnet; test: Rice tolerance, flooded paddy (Table IV); type: in vivo, Oryza sativa; set-up: scale not given here; details: crop tolerance
# Method in brief: as §4
smiles,measurement,setting,value
"COC(=O)C(C)Oc1cc(C)c(C)cc1-c1nsc2ccc(-n3c(=O)cc(C(F)(F)F)n(C)c3=O)cc12 (centres unmarked) [Compound 13, Methyl 2-{{6-{5-[3,6-dihydro-3-methyl-4-(trifluoromethyl)-2,6-dioxo-1(2H)-pyrimidinyl]-1,2-benzisothiazol-3-yl}-3,4-xylyl}oxy}propionate]",herbicide rating (0-9),[1],9.0
same,herbicide rating (0-9),[2],9.0
same,herbicide rating (0-9),[3],8.0
same,herbicide rating (0-9),[4],9.0
same,herbicide rating (0-9),[5],9.0
same,herbicide rating (0-9),[6],9.0
same,herbicide rating (0-9),[7],6.0
same,herbicide rating (0-9),[8],4.0
same,herbicidal effect rating,[9]; 0.0313 kg/ha,0.0
same,herbicidal effect rating,[9]; 0.0625 kg/ha,2.0
same,herbicidal effect rating,[9]; 0.1250 kg/ha,7.0
same,herbicidal effect rating,[9]; 0.2500 kg/ha,7.0
same,herbicidal effect rating,[9]; 0.5000 kg/ha,7.0
same,herbicidal effect rating,[10]; 0.0313 kg/ha,9.0
same,herbicidal effect rating,[10]; 0.0625 kg/ha,9.0
same,herbicidal effect rating,[10]; 0.1250 kg/ha,9.0
same,herbicidal effect rating,[10]; 0.2500 kg/ha,9.0
same,herbicidal effect rating,[10]; 0.5000 kg/ha,9.0
same,herbicidal effect rating,[11]; 0.0313 kg/ha,4.0
same,herbicidal effect rating,[11]; 0.0625 kg/ha,6.0
same,herbicidal effect rating,[11]; 0.1250 kg/ha,7.0
same,herbicidal effect rating,[11]; 0.2500 kg/ha,7.0
same,herbicidal effect rating,[11]; 0.5000 kg/ha,9.0
same,herbicidal effect rating,[12]; 0.1250 kg/ha,9.0
same,herbicidal effect rating,[12]; 0.2500 kg/ha,9.0
same,herbicidal effect rating,[12]; 0.5000 kg/ha,9.0
same,herbicidal effect rating,[13]; 0.1250 kg/ha,2.0
same,herbicidal effect rating,[13]; 0.2500 kg/ha,4.0
same,herbicidal effect rating,[13]; 0.5000 kg/ha,2.0
same,herbicidal effect rating,[14]; 0.1250 kg/ha,9.0
same,herbicidal effect rating,[14]; 0.2500 kg/ha,9.0
same,herbicidal effect rating,[14]; 0.5000 kg/ha,9.0
same,herbicidal effect rating,[15]; 0.1250 kg/ha,2.0
same,herbicidal effect rating,[15]; 0.2500 kg/ha,2.0
same,herbicidal effect rating,[15]; 0.5000 kg/ha,9.0
same,herbicidal effect rating,[16]; 0.1250 kg/ha,4.0
same,herbicidal effect rating,[16]; 0.2500 kg/ha,4.0
same,herbicidal effect rating,[16]; 0.5000 kg/ha,7.0
